These results are taken from US20230081426A1, “COMPOUNDS AND METHODS FOR KRAS MODULATION AND INDICATIONS THEREFOR” (Plexxikon Inc., priority 2020, published 2023).

SMILES strings stand for the structures.

A word on the IC50: it is the concentration that inhibits the measured activity by half.

The target of experiment [1] is T1, G12D-mutant human KRAS (amino acid residues 1-188) (Homo sapiens, UniProt P01116, G12D).
T1 construct: G12D or G12C-mutant human KRAS (amino acid residues 1-188) with FLAG tag; made in house; host or cells: E. coli
The experiment in a line: KRAS Binding Disruption Assay (AlphaScreen; biotinylated KRpep-2d analogue or RAF1-RBD), G12D. Conditions: KRAS G12D; geometric mean; read-out: KRAS GMean IC50 (uM) MUTATION: G12D. The method, boiled down:
(§1)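 Compounds are titrated against 5-20 nM mutant KRAS and 5-20 nM of either a biotinylated KRpep-2d analogue or RAF1-RBD, incubated 1 h at 25° C. Disruption is detected as reduced Alpha signal after 1 h with donor and acceptor beads at 10 μg/mL.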
For orientation: Bead proximity is the source of the signal in Alpha formats.

Experiment [2] has as its target T2, G12C-mutant human KRAS (amino acid residues 1-188) (Homo sapiens, UniProt P01116, G12C).
T2 construct: G12D or G12C-mutant human KRAS (amino acid residues 1-188) with FLAG tag; made in house; host or cells: E. coli
The experiment in a line: KRAS Binding Disruption Assay (AlphaScreen; biotinylated KRpep-2d analogue or RAF1-RBD), G12C. Conditions: geometric mean, read-out: KRAS GMean IC50 (uM) MUTATION: G12C. The method, boiled down:
as §1

For experiment [3], the target named is T3, G12V-mutant human KRAS (amino acid residues 1-188) (Homo sapiens, UniProt P01116, G12V).
T3 construct: G12V-mutant human KRAS (amino acid residues 1-188) with FLAG tag was purified from E. coli; made in house; host or cells: E. coli
The experiment in a line: KRAS Binding Competition Assay (AlphaScreen; biotinylated KRpep-2d analogue), G12V. Conditions: geometric mean, read-out: KRAS GMean IC50 (uM) MUTATION: G12V.

For `Oc1cccc(F)c1-c1ccc2c(N3C[C@H]4CC[C@@H](C3)N4)nc(OCC34CCCN3CCC4)nc2c1F` [P-0049, 2-(4-((1R,5S)-3,8-diazabicyclo[3.2.1]octan-3-yl)-8-fluoro-2-((tetrahydro-1H-pyrrolizin-7a(5H)-yl)methoxy)quinazolin-7-yl)-3-fluorophenol], the half-maximal inhibitory concentration (IC50) in experiment [1] is 0.0001 to 10 µM; in experiment [2], 10 to 100 µM; in experiment [3] it was 100 to 1000 µM.
Taken in the same sequence, the figures for `Oc1cc(-c2ccc3c(C4C[C@H]5CC[C@@H](C4)N5)nc(OCC45CCCN4CCC5)nc3c2)c2ccccc2c1` (stereo partly drawn) [P-0053, 4-(4-((1R,5S)-8-azabicyclo[3.2.1]octan-3-yl)-2-((tetrahydro-1H-pyrrolizin-7a(5H)-yl)methoxy)quinazolin-7-yl)naphthalen-2-ol] were 0.0001 to 10 µM, 10 to 100 µM and 10 to 100 µM.
For `Oc1cc(-c2ncc3c(N4C[C@H]5CC[C@@H](C4)N5)nc(OCC45CCCN4CCC5)nc3c2F)c2ccccc2c1` [P-0055, 4-(4-((1R,5S)-3,8-diazabicyclo[3.2.1]octan-3-yl)-8-fluoro-2-((tetrahydro-1H-pyrrolizin-7a(5H)-yl)methoxy)pyrido[4,3-d]pyrimidin-7-yl)naphthalen-2-ol], in that order: 0.0001 to 10 µM, 0.0001 to 10 µM and 0.0001 to 10 µM.
For `CN1CCC[C@H]1COc1nc(N2C[C@H]3CC[C@@H](C2)N3)c2cc(CO)c(-c3cc(O)cc4ccccc34)c(F)c2n1` [P-0056, 4-[4-(3,8-diazabicyclo[3.2.1]octan-3-yl)-8-fluoro-6-(hydroxymethyl)-2-[[(2S)-1-methylpyrrolidin-2-yl]methoxy]quinazolin-7-yl]naphthalen-2-ol], in that order: 0.0001 to 10 µM, 0.0001 to 10 µM and 0.0001 to 10 µM.
`CO[C@@H]1C[C@@H](COc2nc(N3C[C@H]4CC[C@@H](C3)N4)c3ccc(-c4cc(O)cc5ccccc45)cc3n2)N(C)C1` [P-0060, 4-(4-((1R,5S)-3,8-diazabicyclo[3.2.1]octan-3-yl)-2-(((2S,4R)-4-methoxy-1-methylpyrrolidin-2-yl)methoxy)quinazolin-7-yl)naphthalen-2-ol]: the concentration for half-maximal inhibition (IC50) in experiment [1], in experiment [2] and in experiment [3] was 0.0001 to 10 µM in each case.
With `CCC(=O)N1[C@@H]2CC[C@H]1CN(c1nc(OCC34CCCN3CCC4)nc3cc(-c4cc(O)cc5ccccc45)ccc13)C2` [P-0063, 1-((1R,5S)-3-(7-(3-hydroxynaphthalen-1-yl)-2-((tetrahydro-1H-pyrrolizin-7a(5H)-yl)methoxy)quinazolin-4-yl)-3,8-diazabicyclo[3.2.1]octan-8-yl)propan-1-one], the IC50 in experiment [1], in experiment [2] and in experiment [3] was 0.0001 to 10 µM throughout.
As for `O=C(O)CCC(=O)N1[C@@H]2CC[C@H]1CN(c1nc(OCC34CCCN3CCC4)nc3cc(-c4cc(O)cc5ccccc45)ccc13)C2` [P-0064, 4-((1R,5S)-3-(7-(3-hydroxynaphthalen-1-yl)-2-((tetrahydro-1H-pyrrolizin-7a(5H)-yl)methoxy)quinazolin-4-yl)-3,8-diazabicyclo[3.2.1]octan-8-yl)-4-oxobutanoic acid], the IC50 in experiment [1], in experiment [2] and in experiment [3] was 0.0001 to 10 µM in each case.
For the compound `O=C(c1ccccn1)N1[C@@H]2CC[C@H]1CN(c1nc(OCC34CCCN3CCC4)nc3cc(-c4cc(O)cc5ccccc45)ccc13)C2` [P-0065, ((1R,5S)-3-(7-(3-hydroxynaphthalen-1-yl)-2-((tetrahydro-1H-pyrrolizin-7a(5H)-yl)methoxy)quinazolin-4-yl)-3,8-diazabicyclo[3.2.1]octan-8-yl)(pyridin-2-yl)methanone], the 50% inhibitory concentration (IC50) in experiment [1] fell in the range of 10 to 100 µM; in experiment [2] it was 0.0001 to 10 µM; in experiment [3] it was 0.0001 to 10 µM.
`CN(C)CC(=O)N1[C@@H]2CC[C@H]1CN(c1nc(OCC34CCCN3CCC4)nc3cc(-c4cc(O)cc5ccccc45)ccc13)C2` [P-0066, 2-(dimethylamino)-1-((1R,5S)-3-(7-(3-hydroxynaphthalen-1-yl)-2-((tetrahydro-1H-pyrrolizin-7a(5H)-yl)methoxy)quinazolin-4-yl)-3,8-diazabicyclo[3.2.1]octan-8-yl)ethan-1-one]: the IC50 in experiment [1], in experiment [2] and in experiment [3] was 0.0001 to 10 µM each time.
As to `NC(=O)N1[C@@H]2CC[C@H]1CN(c1nc(OCC34CCCN3CCC4)nc3cc(-c4cc(O)cc5ccccc45)ccc13)C2` [P-0067, (1R,5S)-3-(7-(3-hydroxynaphthalen-1-yl)-2-((tetrahydro-1H-pyrrolizin-7a(5H)-yl)methoxy)quinazolin-4-yl)-3,8-diazabicyclo[3.2.1]octane-8-carboxamide], the IC50 in experiment [1], in experiment [2] and in experiment [3] was 0.0001 to 10 µM in each case.
On to `COC(=O)CCC(=O)N1[C@@H]2CC[C@H]1CN(c1nc(OCC34CCCN3CCC4)nc3cc(-c4cc(O)cc5ccccc45)ccc13)C2` [P-0068, methyl 4-((1R,5S)-3-(7-(3-hydroxynaphthalen-1-yl)-2-((tetrahydro-1H-pyrrolizin-7a(5H)-yl)methoxy)quinazolin-4-yl)-3,8-diazabicyclo[3.2.1]octan-8-yl)-4-oxobutanoate], for which the IC50 in experiment [1], in experiment [2] and in experiment [3] was 0.0001 to 10 µM throughout.
Turning to `Cc1cccc2cc(O)cc(-c3ccc4c(N5C[C@H]6CC[C@@H](C5)N6)nc(OCC56CCCN5CCC6)nc4c3F)c12` [P-0085, 4-(4-((1R,5S)-3,8-diazabicyclo[3.2.1]octan-3-yl)-8-fluoro-2-((tetrahydro-1H-pyrrolizin-7a(5H)-yl)methoxy)quinazolin-7-yl)-5-methylnaphthalen-2-ol], the IC50 in experiment [1], in experiment [2] and in experiment [3] was 0.0001 to 10 µM in each case.
For the compound `Cc1cccc2cc(O)cc(-c3c(F)cc4c(N5C[C@H]6CC[C@@H](C5)N6)nc(OCC56CCCN5CCC6)nc4c3F)c12` [P-0088, 4-(4-((1R,5S)-3,8-diazabicyclo[3.2.1]octan-3-yl)-6,8-difluoro-2-((tetrahydro-1H-pyrrolizin-7a(5H)-yl)methoxy)quinazolin-7-yl)-5-methylnaphthalen-2-ol], the IC50 in experiment [1], in experiment [2] and in experiment [3] was 0.0001 to 10 µM each time.
For `CCCNS(=O)(=O)N1[C@@H]2CC[C@H]1CN(c1nc(OCC34CCCN3CCC4)nc3cc(-c4cc(O)cc5ccccc45)ccc13)C2` [P-0096, (1R,5S)-3-(7-(3-hydroxynaphthalen-1-yl)-2-((tetrahydro-1H-pyrrolizin-7a(5H)-yl)methoxy)quinazolin-4-yl)-N-propyl-3,8-diazabicyclo[3.2.1]octane-8-sulfonamide], the IC50 in experiment [1] was 0.0001 to 10 µM; in experiment [2], 0.0001 to 10 µM; in experiment [3], 10 to 100 µM.
Regarding `O=C(c1n[nH]c(=O)[nH]1)N1[C@@H]2CC[C@H]1CN(c1nc(OCC34CCCN3CCC4)nc3cc(-c4cc(O)cc5ccccc45)ccc13)C2` [P-0099, 5-((1R,5S)-3-(7-(3-hydroxynaphthalen-1-yl)-2-((tetrahydro-1H-pyrrolizin-7a(5H)-yl)methoxy)quinazolin-4-yl)-3,8-diazabicyclo[3.2.1]octane-8-carbonyl)-2,4-dihydro-3H-1,2,4-triazol-3-one], the 50% inhibitory concentration (IC50) in experiment [1], in experiment [2] and in experiment [3] was 0.0001 to 10 µM each time.
As to `NCC(O)CC(=O)N1[C@@H]2CC[C@H]1CN(c1nc(OCC34CCCN3CCC4)nc3cc(-c4cc(O)cc5ccccc45)ccc13)C2` (stereo partly drawn) [P-0100, 4-amino-3-hydroxy-1-((1R,5S)-3-(7-(3-hydroxynaphthalen-1-yl)-2-((tetrahydro-1H-pyrrolizin-7a(5H)-yl)methoxy)quinazolin-4-yl)-3,8-diazabicyclo[3.2.1]octan-8-yl)butan-1-one], the IC50 in experiment [1], in experiment [2] and in experiment [3] was 0.0001 to 10 µM throughout.
On to `Oc1cc(-c2ccc3c(N4C[C@H]5CC[C@@H](C4)N5)nc(OCC45CCCCN4CCC5)nc3c2)c2ccccc2c1` (stereo partly drawn) [P-0102, 4-(4-((1R,5S)-3,8-diazabicyclo[3.2.1]octan-3-yl)-2-((hexahydroindolizin-8a(1H)-yl)methoxy)quinazolin-7-yl)naphthalen-2-ol], for which the IC50 in experiment [1], in experiment [2] and in experiment [3] was 0.0001 to 10 µM each time.
Turning to `CN1CCC[C@H]1COc1nc(N2C[C@H]3CC[C@@H](C2)N3C(N)=O)c2ccc(-c3cc(O)cc4ccccc34)c(F)c2n1` [P-0103, (1R,5S)-3-(8-fluoro-7-(3-hydroxynaphthalen-1-yl)-2-(((S)-1-methylpyrrolidin-2-yl)methoxy)quinazolin-4-yl)-3,8-diazabicyclo[3.2.1]octane-8-carboxamide], the 50% inhibitory concentration (IC50) in experiment [1], in experiment [2] and in experiment [3] was 0.0001 to 10 µM throughout.
Take `CN1CCC[C@H]1COc1nc(N2C[C@H]3CC[C@@H](C2)N3C(=O)NC2CCNC2)c2ccc(-c3cc(O)cc4ccccc34)c(F)c2n1` (stereo partly drawn) [P-0106, (1R,5S)-3-(8-fluoro-7-(3-hydroxynaphthalen-1-yl)-2-(((S)-1-methylpyrrolidin-2-yl)methoxy)quinazolin-4-yl)-N-(pyrrolidin-3-yl)-3,8-diazabicyclo[3.2.1]octane-8-carboxamide]: the IC50 in experiment [1], in experiment [2] and in experiment [3] was 0.0001 to 10 µM throughout.
